According to patent US20210161997A1, “TREATING DISEASES VIA TARGETED MODULATION OF GENE SIGNALING NETWORKS” (Camp4 Therapeutics Corporation, priority 2018, published 2021):

What was measured:
MECP2 mRNA [1] = experiment: qPCR of MECP2 mRNA in mouse hepatocytes; conditions: 10 uM, qPCR relative to DMSO control (FIG. 8)
Description: (§1) Samples were amplified using Taqman probes from ThermoFisher.

MECP2 mRNA [2] = experiment: MECP2 mRNA in primary human hepatocytes (donor 1, donor 2); assay type: cell-based; conditions: two donors, indicated dosages vs DMSO (FIGS. 10A and 10B)
Experimental: (§2) Human hepatocytes were obtained from two donors from Massachusetts General Hospital, namely MGH54 and MGH63, and one donor from Lonza, namely HUM4111B. Cryopreserved hepatocytes were cultured in plating media for 16 hours, transferred to maintenance media for 4 hours. Cultured on serum-free media for 2 hours, then a compound was added. The hepatocytes were maintained on the serum-free media for 16 hours prior to gene expression analysis. Primary human hepatocytes were stored in the vapor phase of a liquid nitrogen freezer (about −130° C.).
(§3) Human hepatocytes cultured as described above were plated in 24-well format, adding 375,000 cells per well in a volume of 500 ul plating medium. Four hours before treatment, cells were washed with PBS and the medium was changed to either: fresh maintenance medium (complete) or modified maintenance medium.
(§4) Compound stocks were prepared at 1000× final concentration and added in a 2-step dilution to the medium to reduce risk of a compound precipitating out of solution when added to the cells, and to ensure reasonable pipetting volumes. One at a time, each compound was first diluted 10-fold in warm (about 37° C.) modified maintenance medium (initial dilution=ID), mixed by vortexing, and the ID was diluted 100-fold into the cell culture (e.g. 5.1 ul into 1 well of a 24-well plate containing 0.5 mL medium). The plate was mixed by carefully swirling and after all wells were treated and returned to the incubator overnight. If desired, separate plates/wells were treated with vehicle-only controls and/or positive controls. If using multi-well plates, controls were included on each plate. After about 18 hours, cells were harvested for further analysis, e.g., ChIP-seq, RNA-seq, ATAC-seq, etc.
as §1

ANGPTL3 = experiment: RNA-seq of ANGPTL3 expression in compound-treated primary human hepatocytes; assay type: cell-based; conditions: additional compounds (Table 13), linear fold change
Procedure, shortened: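 Cryopreserved primary human hepatocytes from three donors, plated at 375,000 cells/well, switched to complete or modified maintenance medium, then dosed with compound (stocks at 1000× final) for about 18 h. Poly(A) mRNA was sequenced directionally, mapped to GRCh38 with STAR, and gene-level abundance (counts, FPKM) estimated with RSEM against GENCODE 24.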

SERPINC1 mRNA [3] = experiment: Quantitative PCR of SERPINC1 mRNA in primary human hepatocytes (Lonza Hu4282) treated with compounds; assay type: cell-based; conditions: quantitative PCR; for SERPINC1 mRNA, Lonza Hu4282, 1 uM / SERPINC1 mRNA, Lonza Hu4282, 10 uM: primary human hepatocytes Lonza Hu4282; for SERPINC1 mRNA, Lonza Hu4282, 1 uM / SERPINC1 mRNA, H8290, 1 uM: compound 1 uM; for SERPINC1 mRNA, Lonza Hu4282, 10 uM / SERPINC1 mRNA, H8290, 10 uM: compound 10 uM; for SERPINC1 mRNA, H8290, 1 uM / SERPINC1 mRNA, H8290, 10 uM: hepatocytes H8290
SERPINC1 mRNA [4] = experiment: Quantitative PCR of SERPINC1 mRNA in mouse hepatocytes treated with compounds; assay type: cell-based; conditions: for SERPINC1 mRNA, Mouse Heps, 1 uM: compound 1 uM; for SERPINC1 mRNA, Mouse Heps, 10 uM: compound 10 uM
Experimental: as §1
In some examples, RQ Min and RQ Max values are also reported. RQ Min and RQ Max are the minimum and maximum relative levels of gene expression in the test samples, respectively. They were calculated using the confidence level set in the analysis settings and the confidence level was set to one standard deviation (SD). These values were calculated using standard deviation as follows: […].
Compounds were tested in hepatocytes for upregulation of SERPINC1 mRNA for identification of potential treatments of SERPINC1/AT III deficiency.

SERPINC1 mRNA [5] = experiment: RNA seq of SERPINC1 in MGH54 cells treated with select compounds; assay type: cell-based, human; conditions: compound 10 uM
SERPINC1 = experiment: RNA-seq of SERPINC1 expression in compound-treated primary human hepatocytes; assay type: cell-based; conditions: significance FPKM ≥1, log 2(fold change) ≥0.5, q-value ≤0.05
Experimental: Human hepatocytes were obtained from two donors from Massachusetts General Hospital, namely MGH54 and MGH63, and one donor from Lonza, namely HUM4111B. Cryopreserved hepatocytes were cultured in plating media for 16 hours, transferred to maintenance media for 4 hours. Cultured on serum-free media for 2 hours, then a compound was added. The hepatocytes were maintained on the serum-free media for 16 hours prior to gene expression analysis. Primary human hepatocytes were stored in the vapor phase of a liquid nitrogen freezer (about -130° C.). Human hepatocytes cultured as described above were plated in 24-well format, adding 375,000 cells per well in a volume of 500 ul plating medium. Four hours before treatment, cells were washed with PBS and the medium was changed to either: fresh maintenance medium (complete) or modified maintenance medium. Compound stocks were prepared at 1000× final concentration and added in a 2-step dilution to the medium to reduce risk of a compound precipitating out of solution when added to the cells, and to ensure reasonable pipetting volumes. […] The plate was mixed by carefully swirling and after all wells were treated and returned to the incubator overnight. If desired, separate plates/wells were treated with vehicle-only controls and/or positive controls. If using multi-well plates, controls were included on each plate. After about 18 hours, cells were harvested for further analysis, e.g., ChIP-seq, RNA-seq, ATAC-seq, etc. This protocol is a modified version of the following protocols: MagMAX mirVana Total RNA Isolation Kit User Guide (Applied Biosystems #MAN0011131 Rev B.0), NEBNext Poly(A) mRNA Magnetic Isolation Module ([…]), and NEBNext Ultra Directional RNA Library Prep Kit for Illumina ([…]) (New England Biosystems #E74901). […] Two hundred μl of Lysis Binding Mix was used per well of the multiwell plate containing adherent cells (usually a 24-well plate). For mRNA isolation and library prep, the NEBNext Poly(A) mRNA Magnetic Isolation Module and Directional Prep kit was used. RNA isolated from cells above was quantified, and prepared in […] of each sample in 50 μl of nuclease-free water. This protocol may be run in microfuge tubes or in a 96-well plate. […] Genomic alignments were converted to transcriptome alignments based on reference transcript annotations from the Human GENCODE Gene Set release 24 (Harrow et al., Genome Res. […] Using unique and multimapped transcriptomic alignments, gene-level abundance estimates were computed using RSEM version 1.3.0 (Li and Dewey, BMC Bioinformatics (2011) 12:323) in a strand-aware manner, and including confidence interval sampling calculations, to arrive at posterior mean estimates (PME) of abundances (counts and normalized FPKM-fragments per kilobase of exon per million mapped fragments) from the underlying Bayesian model. Standard QC were applied (read integrity, mapping statistics, library complexity, fragment bias) to remove unsatisfactory samples. Differential gene expression was computed using the negative binomial model implemented by DESeq2 version 1.16.1 (Love et al., Genome Biol. (2014) 15(12):550). […] RNA-seq signals were also normalized by read depth and visualized using the UCSC browser. To identify small molecules that modulate target gene expression, primary human hepatocytes were prepared as a monoculture, and at least one small molecule compound was applied to the cells. RNA-seq was performed to determine the effects of the compounds on the expression of the target genes in hepatocytes. Fold change was calculated by dividing the level of expression in the cell system that had been perturbed by the level of expression in an unperturbed system.

UGT1A1 = experiment: RNA-seq of UGT1A1 expression in compound-treated primary human hepatocytes; assay type: cell-based
Procedure, shortened: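 Cryopreserved primary human hepatocytes from three donors were plated in 24-well format, then treated with compound diluted from 1000× stocks in serum-free maintenance medium for about 16–18 h. Poly(A) RNA-seq log2 fold change was computed against vehicle/pan-experiment controls. Significance required FPKM ≥1, log2FC ≥0.5 and q ≤0.05.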

APOL1 mRNA = APOL1 mRNA in primary human hepatocytes treated with Momelotinib or metabolite M21; assay type: cell-based; conditions: 3.3 uM vs DMSO (FIG. 11, FIG. 12)
FN1 = experiment: RNA-seq of FN1 expression in compound-treated primary human hepatocytes; assay type: cell-based; conditions: perturbed vs unperturbed, significance FPKM ≥1, log 2(fold change) ≥0.5, q-value ≤0.05
Experimental: as §2, §3, §4
This protocol is a modified version of the following protocols: MagMAX mirVana Total RNA Isolation Kit User Guide (Applied Biosystems #MAN0011131 Rev B.0), NEBNext Poly(A) mRNA Magnetic Isolation Module (E7490), and NEBNext Ultra Directional RNA Library Prep Kit for Illumina (E7420) (New England Biosystems #E74901).
The MagMAX mirVana kit instructions (the section titled “Isolate RNA from cells” on pages 14-17) were used for isolation of total RNA from cells in culture. Two hundred μl of Lysis Binding Mix was used per well of the multiwell plate containing adherent cells (usually a 24-well plate).
For mRNA isolation and library prep, the NEBNext Poly(A) mRNA Magnetic Isolation Module and Directional Prep kit was used. RNA isolated from cells above was quantified, and prepared in […] of each sample in 50 μl of nuclease-free water. This protocol may be run in microfuge tubes or in a 96-well plate.
All pass filter reads from each sample were mapped against the human genome (assembly GRCh38/GCA_000001405.15 “no alt” analysis set merged with hs38d1/GCA_000786075.2) using two pass mapping via STAR version 2.5.3a (alignment parameters alignIntronMin=20; alignIntronMax=1000000; outFilterMismatchNmax=999; outFilterMismatchNoverLmax=0.05; outFilterType=BySJout; outFilterMultimapNmax=20; alignSJoverhangMin=8; alignSJDBoverhangMin=1; alignMatesGapMax=1000000) (Dobin et al., Bioinformatics (2012) 29(1):15-21). Genomic alignments were converted to transcriptome alignments based on reference transcript annotations from the Human GENCODE Gene Set release 24 (Harrow et al., Genome Res. (2012) 22(9): 1760-1774). Using unique and multimapped transcriptomic alignments, gene-level abundance estimates were computed using RSEM version 1.3.0 (Li and Dewey, BMC Bioinformatics (2011) 12:323) in a strand-aware manner, and including confidence interval sampling calculations, to arrive at posterior mean estimates (PME) of abundances (counts and normalized FPKM—fragments per kilobase of exon per million mapped fragments) from the underlying Bayesian model. Standard QC were applied (read integrity, mapping statistics, library complexity, fragment bias) to remove unsatisfactory samples.

HMBS = experiment: RNA-seq of HMBS expression in compound-treated primary human hepatocytes; assay type: cell-based
Experimental: as §2, §3
Compound stocks were prepared at 1000× final concentration and added in a 2-step dilution to the medium to reduce risk of a compound precipitating out of solution when added to the cells, and to ensure reasonable pipetting volumes. […]
For mRNA isolation and library prep, the NEBNext Poly(A) mRNA Magnetic Isolation Module and Directional Prep kit was used. RNA isolated from cells above was quantified, and prepared in […] of each sample in 50 μl of nuclease-free water. […]

SMILES	SERPINC1 mRNA, Lonza Hu4282, 1 uM (SERPINC1 mRNA [3])	SERPINC1 mRNA, Lonza Hu4282, 10 uM (SERPINC1 mRNA [3])	SERPINC1 mRNA, Mouse Heps, 1 uM (SERPINC1 mRNA [4])	SERPINC1 mRNA, Mouse Heps, 10 uM (SERPINC1 mRNA [4])	SERPINC1, MGH54 (RNA seq), 10 uM (SERPINC1 mRNA [5])	SERPINC1 mRNA, H8290, 1 uM (SERPINC1 mRNA [3])	SERPINC1 mRNA, H8290, 10 uM (SERPINC1 mRNA [3])	other results
C=CCNC1=C2C[C@@H](C)C[C@H](OC)[C@H](O)[C@@H](C)/C=C(\C)[C@H](OC(N)=O)[C@@H](OC)/C=C\C=C(/C)C(=O)NC(=CC1=O)C2=O [17-AAG (Tanespimycin), Tanespimycin]	–	–	–	–	–	–	–	MECP2 mRNA change in mouse hepatocytes (MECP2 mRNA [1]): increased; MECP2 mRNA change in primary human hepatocytes (MECP2 mRNA [2]): dose-dependent increase
COc1ccc(-c2ccc3c(N4CCOC[C@@H]4C)nc(N4CCOC[C@@H]4C)nc3n2)cc1CO [AZD8055]	1.3	1.61	3.2	3.4	0	–	–	ANGPTL3-LINEAR FOLD CHANGE (ANGPTL3): 0.4965
COc1cc2c(Oc3ccc(NC(=O)C4(C(=O)Nc5ccc(F)cc5)CC4)cc3F)ccnc2cc1OCCCN1CCOCC1 [Foretinib]	1.04	1.36	1.05	0.93	0	1	2.2	–
O=C1CCc2c(Oc3ccc4c(c3)[C@@H]3[C@H](O4)[C@H]3c3nc4cc(C(F)(F)F)ccc4[nH]3)ccnc2N1 [Lifirafenib (BGB-283)/BeiGene]	1.05	1.21	0.81	1.1	1.43	1.1	2.1	–
N#CCNC(=O)c1ccc(-c2ccnc(Nc3ccc(N4CCOCC4)cc3)n2)cc1 [Momelotinib]	–	–	–	–	–	–	–	SERPINC1 Fold Change (Log2) (SERPINC1): 0.93 Log2; UGT1A1 Fold Change (Log2) (UGT1A1): 1.05 Log2; APOL mRNA change in primary human hepatocytes (APOL1 mRNA): Downregulation
CC(=O)NCC(=O)N1[C@@H]2CC[C@H]1c1ccc(Nc3ncc(C(F)(F)F)c(NC4CCC4)n3)cc12 [PF-3814735]	0.99	2.6	1.2	1.86	2.43	–	–	ANGPTL3-LINEAR FOLD CHANGE (ANGPTL3): 0.4383
CN1CCN(c2nc(C3=C(c4c[nH]c5ccccc45)C(=O)NC3=O)c3ccccc3n2)CC1 [Sotrastaurin]	–	–	–	–	–	–	–	FN1 Fold Change (Log2) (FN1): −0.81 Log2; HMBS Fold Change (Log2) (HMBS): 0.78 Log2; UGT1A1 Fold Change (Log2) (UGT1A1): 0.88 Log2
CO[C@H]1C[C@@H]2CC[C@@H](C)[C@@](O)(O2)C(=O)C(=O)N2CCCC[C@H]2C(=O)O[C@H]([C@H](C)C[C@@H]2CC[C@@H](OC(=O)C(C)(CO)CO)[C@H](OC)C2)CC(=O)[C@H](C)/C=C(\C)[C@@H](O)[C@@H](OC)C(=O)[C@H](C)C[C@H](C)/C=C/C=C/C=C/1C [Temsirolimus]	–	–	–	–	0	1.2	1.6	–
CCn1c(=O)c(-c2cc[nH]n2)cc2c(C)nc(N)nc21 [Voxtalisib]	1.1	1.24	1.23	2.4	0	1.2	1.5	–
